In US10173968B2, “Bishydrazone-based antifungal agents” (University of Kentucky Research Foundation, priority 2016, dated 2019):
Like-named read-outs stand apart in the source and are kept apart here.

How the values were obtained:
[1] = tested on: K. pneumoniae ATCC 27736; assay: Antibacterial MIC, double-dilution method; type: cell-based; conditions: Klebsiella pneumoniae, ATCC27736, strain H, Gram-negative, read-out: MIC
Procedure, shortened: (§1)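 The lowest inhibitory concentration is reported from a twofold dilution series, after an initial single-concentration screen with every compound at 500 μM.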

[2] = tested on: E. coli MC1061; assay: Antibacterial MIC, double-dilution method; type: cell-based; conditions: Escherichia coli, strain G, Gram-negative, read-out: MIC
Procedure, shortened: as §1

[3] = tested on: VRE; assay: Antibacterial MIC, double-dilution method; type: cell-based; conditions: Enterococcus, strain D, Gram-positive, read-out: MIC
Procedure, shortened: as §1

[4] = tested on: S. enterica ATCC 14028; assay: Antibacterial MIC, double-dilution method; type: cell-based; conditions: Salmonella enterica, ATCC14028, strain J, Gram-negative, read-out: MIC
Procedure, shortened: as §1

[5] = tested on: B. subtilis 168; assay: Antibacterial MIC, double-dilution method; type: cell-based; conditions: Bacillus subtilis, strain A, Gram-positive
Procedure, shortened: as §1

[6] = tested on: P. aeruginosa ATCC 27853; assay: Antibacterial MIC, double-dilution method; type: cell-based; conditions: Pseudomonas aeruginosa, ATCC27853, strain I, Gram-negative, read-out: MIC
Procedure, shortened: as §1

[7] = tested on: A. baumannii ATCC 19606; assay: Antibacterial MIC, double-dilution method; type: cell-based; conditions: Acinetobacter baumannii, ATCC19606, strain E, Gram-negative, read-out: MIC
Procedure, shortened: as §1

[8] = tested on: E. cloacae ATCC 13047; assay: Antibacterial MIC, double-dilution method; type: cell-based; conditions: Enterobacter cloacae, ATCC13047, strain F, Gram-negative, read-out: MIC
Procedure, shortened: as §1

[9] = tested on: L. monocytogenes ATCC 19115; assay: Antibacterial MIC, double-dilution method; type: cell-based; conditions: Listeria monocytogenes, ATCC19115, strain B, Gram-positive, read-out: MIC
Procedure, shortened: as §1

[10] = tested on: MRSA; assay: Antibacterial MIC, double-dilution method; type: cell-based; conditions: Staphylococcus aureus, strain C, Gram-positive, read-out: MIC
Procedure, shortened: as §1

[11] = tested on: C. albicans strains (panel of seven); assay: Antifungal MIC, summary over the panel; type: cell-based, Candida albicans; conditions: for antifungal activity in words: against all fungal strains tested
Procedure, shortened: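 Broth microdilution per CLSI M27-A3 (minor modifications); visual read; MIC = lowest conc. with complete inhibition vs growth control.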

[12] = tested on: C. albicans ATCC 10231; assay: Antifungal MIC, CLSI M27-A3 microbroth dilution; type: cell-based, Candida albicans; conditions: Candida albicans, ATCC10231, C. albicans ATCC 10231, resistant to FLC, ITC, and VOR, read-out: MIC
Experimental: (§2) In vitro MIC testing was performed according to the CLSI M27-A3 standard microbroth dilution methodology for the susceptibility testing of yeasts with minor modifications.

[13] = tested on: C. albicans ATCC 64124; assay: Antifungal MIC, CLSI M27-A3 microbroth dilution; type: cell-based, Candida albicans; conditions: Candida albicans, ATCC64124, C. albicans ATCC 64124, resistant to FLC, ITC, and VOR, read-out: MIC
Experimental: as §2

[14] = tested on: C. albicans ATCC 90819; assay: Antifungal MIC, CLSI M27-A3 microbroth dilution; type: cell-based, Candida albicans; conditions: Candida albicans, ATCC90819, C. albicans ATCC 90819, resistant to FLC, ITC, and VOR, read-out: MIC
Experimental: as §2

[15] = tested on: C. albicans ATCC 1003; assay: Antifungal MIC, CLSI M27-A3 microbroth dilution; type: cell-based, Candida albicans; conditions: Candida albicans, ATCC1003, read-out: MIC
Experimental: as §2

[16] = tested on: C. albicans ATCC 2876; assay: Antifungal MIC, CLSI M27-A3 microbroth dilution; type: cell-based, Candida albicans; conditions: Candida albicans, ATCC2876, C. albicans ATCC 2876, susceptible to FLC, ITC, and VOR, read-out: MIC
Experimental: as §2

[17] = tested on: C. albicans ATCC 1237; assay: Antifungal MIC, CLSI M27-A3 microbroth dilution; type: cell-based, Candida albicans; conditions: Candida albicans, ATCC1237, C. albicans ATCC 1237, resistant to FLC, ITC, and VOR, read-out: MIC
Experimental: as §2

[18] = tested on: C. albicans ATCC 2310; assay: Antifungal MIC, CLSI M27-A3 microbroth dilution; type: cell-based, Candida albicans; conditions: Candida albicans, ATCC2310, C. albicans ATCC 2310, susceptible to FLC, ITC, and VOR, read-out: MIC
Experimental: as §2

[19] = Mammalian cell cytotoxicity, resazurin; type: cell-based; conditions: human
Experimental: Another important aspect to consider during the development of antimicrobial agents is their potential toxicity towards mammalian cells. Having established the potent antimicrobial activities of the bis(N-amidino)hydrazones and N-amidino-N′-aryl-bishydrazones against bacteria and fungi, the toxicity profile of these compounds was determined against two mammalian cell lines (A549 and BEAS-2B; FIGS. 4A-B). […]. Cytotoxicity assays were performed as previously described. The human lung carcinoma epithelial cells A549 and the normal human bronchial epithelial cells BEAS-2B were grown in F12-K and DMEM medium containing 10% fetal bovine serum (FBS) and 1% antibiotics, respectively. The confluent cells were trypsinized with 0.05%-trypsin-0.53 mM EDTA, centrifuged (1,200 rpm) and resuspended in fresh medium (F12-K or DMEM). The cells were seeded into 96-well microtiter plates at a density of 3,000 cells/well and were grown overnight. […] Triton X-100® (0.5%, v/v) gave complete loss of cell viability and was used as the positive control. The percent cell survival was calculated as: (test value/control value)×100, where control value represents cells+resazurin−drug, and test value represents cells+resazurin+drug.

[20] = C. albicans ATCC 1003, converted from μg/mL
[21] = A549 lung carcinoma epithelial cells, A549, 24 h
[22] = BEAS-2B normal bronchial epithelial cells

Row | Compound | MIC ([1]; converted from μM) | MIC ([1]; range 0.5 to 500 μM) | MIC ([2]; converted from μM) | MIC ([2]; range 0.5 to 500 μM) | MIC ([3]; converted from μM) | MIC ([4]; converted from μM) | MIC ([4]; range 0.5 to 500 μM) | MIC ([5]; converted from μM) | MIC ([5]; range 0.5 to 500 μM) | MIC ([6]; converted from μM) | MIC ([6]; range 0.5 to 500 μM) | MIC ([7]; converted from μM) | MIC ([7]; range 0.5 to 500 μM) | MIC ([8]; converted from μM) | MIC ([8]; range 0.5 to 500 μM) | MIC ([9]; converted from μM) | MIC ([9]; range 0.5 to 500 μM) | MIC ([10]; converted from μM) | MIC ([12]; converted from μg/mL) | MIC ([13]; converted from μg/mL) | also measured
1 | Cl.N=C(N)N/N=C/c1ccc(-c2ccc(C=NNc3ccccc3Cl)cc2)cc1 (mixture of isomers) [Compound 7Aa, E)-2-((4′-((E and Z)-(2-(2-Chlorophenyl)hydrazono)methyl)-[1,1′-biphenyl]-4-yl)methylene)hydrazine-1-carboximidamide monohydrochloride] | > 215 µg/mL | > 500 µM | > 215 µg/mL | > 500 µM | 0.9 µg/mL | > 215 µg/mL | > 500 µM | > 215 µg/mL | > 500 µM | > 215 µg/mL | > 500 µM | > 215 µg/mL | > 500 µM | > 215 µg/mL | > 500 µM | 0.4 to 0.9 µg/mL | 1 to 2 µM | 0.9 µg/mL | 4.6 µM | 9.2 µM | antifungal activity in words [11]: excellent antifungal activities; MIC [13]: 3.9 µg/mL; MIC ([14]; converted from μg/mL): 4.6 µM; MIC [15, 20]: 4.6 µM; MIC ([16]; converted from μg/mL): 4.6 µM; MIC ([17]; converted from μg/mL): 9.2 µM; MIC [17]: 3.9 µg/mL; MIC ([18]; converted from μg/mL): 4.6 µM
2 | Cl.Cl.N=C(N)N/N=C/c1ccc(-c2cccc(/C=N/NC(=N)N)c2)cc1 [Compound 3B, (2E,2′E)-2,2′-([1,1′-Biphenyl]-3,4′-diylbis(methanylylidene))bis(hydrazine-1-carboximidamide) dihydrochloride] | > 198 µg/mL | > 500 µM | > 198 µg/mL | > 500 µM | 1.5 µg/mL | > 198 µg/mL | > 500 µM | > 198 µg/mL | > 500 µM | > 198 µg/mL | > 500 µM | > 198 µg/mL | > 500 µM | > 198 µg/mL | > 500 µM | 0.4 µg/mL | 1 µM | 1.5 µg/mL | 9.9 µM | 9.9 µM | MIC ([3]; range 0.5 to 500 μM): 3.9 µM; MIC ([10]; range 0.5 to 500 μM): 3.9 µM; antifungal activity in words [11]: excellent antifungal activities; MIC [12]: 3.9 µg/mL; MIC [13]: 3.9 µg/mL; MIC ([14]; converted from μg/mL): 9.9 µM; MIC [14]: 3.9 µg/mL; MIC [15, 20]: 9.9 µM; MIC [15]: 3.9 µg/mL; MIC ([16]; converted from μg/mL): 9.9 µM; MIC [16]: 3.9 µg/mL; MIC ([17]; converted from μg/mL): 9.9 µM; MIC [17]: 3.9 µg/mL; MIC ([18]; converted from μg/mL): 9.9 µM; MIC [18]: 3.9 µg/mL; IC50 at 24 h [19, 21]: 7.8 to 15.6 µg/mL; IC50 at 24 h [19, 22]: 7.8 to 15.6 µg/mL
3 | Cl.N=C(N)N/N=C/c1ccc(-c2ccc(/C=N/Nc3ccc(Cl)cc3)cc2)cc1 [Compound 7Ad, (E)-2-((4′-((E)-(2-(4-Chlorophenyl)hydrazono)methyl)-[1,1′-biphenyl]-4-yl)methylene)hydrazine-1-carboximidamide monohydrochloride] | > 214 µg/mL | > 500 µM | > 214 µg/mL | > 500 µM | 1.7 µg/mL | > 214 µg/mL | > 500 µM | > 214 µg/mL | > 500 µM | > 214 µg/mL | > 500 µM | > 214 µg/mL | > 500 µM | > 214 µg/mL | > 500 µM | 1.7 µg/mL | 3.9 µM | 3.3 µg/mL | 18.3 µM | 36.5 µM | MIC ([3]; range 0.5 to 500 μM): 3.9 µM; MIC ([10]; range 0.5 to 500 μM): 7.8 µM; MIC ([11]; Candida albicans, all, most or majority of the fungal strains, read-out: MIC, span over C. albicans strains): 7.8 to 15.6 µg/mL; MIC [12]: 7.8 µg/mL; MIC [13]: 15.6 µg/mL; MIC ([14]; converted from μg/mL): 18.3 µM; MIC [14]: 7.8 µg/mL; MIC [15, 20]: 9.1 µM; MIC [15]: 3.9 µg/mL; MIC ([16]; converted from μg/mL): 18.3 µM; MIC [16]: 7.8 µg/mL; MIC ([17]; converted from μg/mL): 36.5 µM; MIC [17]: 15.6 µg/mL; MIC ([18]; converted from μg/mL): 9.1 µM; MIC [18]: 3.9 µg/mL; IC50 at 24 h [19, 21]: 7.8 to 15.6 µg/mL; IC50 at 24 h [19, 22]: 7.8 to 15.6 µg/mL
